Entries after “also recorded” stand apart in the source; their conditions may differ. Structures can show the parent of a compound that is named as a salt.
What was measured:
[1] = tested on: rat aortic smooth muscle cells; assay: TGF-beta Production Stimulator functional assay: suppression of smooth muscle cell proliferation reversible by neutralising anti-TGF-beta1 antibody; assay type: cell-based, Wistar rat; conditions: compared side-by-side with Tamoxifen
Description: In order compare Droloxifene with other triphenylethylenes, we have exploited a functional assay for TGF-beta1 activity. Alternative approaches are less suitable for various reasons: it is not possible to directly measure TGF-beta protein production by cultured cells in response to triphenylethylenes because the TGF-beta that is produced remains associated with the cells or the extracellular matrix and is therefore not available for assay (for example, by ELISA) in the conditioned medium from the cultured cells. […] The specificity of such an assay is achieved by comparing the rate of proliferation of the smooth muscle cells in the presence or absence of a validated, highly specific neutralising antibody against TGF-beta (or TGF-beta1, as required).
The cells were prepared by enzyme dispersion of isolated rat aortae exactly as described previously (Grainger et al (1993) Biochem. J. 294(1):109-12 and the references therein). The cells were cultured (37° C.; 5% CO2) in DMEM+10% foetal calf serum (FCS), and subcultured every 4 days at 1:2 dilution, using 0.02% trypsin/EDTA (Gibco). Experiments were performed between the sixth and twentieth subculture.
For the experiments, the cells were subcultured into 12-well cluster plates, and allowed to grow for 24 hrs. […] The cells were then incubated for 72 hrs. All treatment conditions were established in triplicate. One triplicate of cells was counted (see below) at Oh. All other wells were counted at 72 hrs.
The number of cells in each well was determined as follows: the well was washed three times with serum-free DMEM, aspirated and then incubated with 100 μl of trypsin/EDTA solution (Gibco) for 2 minutes at 37° C. Complete release of the cell monolayer was confirmed microscopically. The cell density in portion of this suspension was determined by counting using an Improved Neubauer hameocytometer, ensuring the suspension was uniform by gentle pipetting, prior to sampling. The cell density was converted to the absolute number of cells present in the well by multiplying the number of cells per μl by the total volume of suspension (100 μl). For each condition, the mean number of cells at the end of the experiment was calculated by meaning the number of cells in each well of triplicate.
The extent of proliferation of the cell culture under each condition was determined by subtracting the mean number of cells at time Oh from the mean number of cells under that condition at time 72 h. The amount of TGF-beta1 activity under each condition was determined by subtracting the inhibition of growth achieved in the presence of neutralising anti-TGF-beta1 antibody (AB-101-NA; R&D Systems) from the inhibition of growth achieved in the absence of antibody.

[2] = Effect of co-administered triphenylethylenes on clopidogrel metabolism in vivo (CLP*-acetamide by LC-MS); set-up: species or system Sprague-Dawley rats; conditions: oral gavage; for effect on clopidogrel metabolism (in words): 0.1 to 10 mg/kg with 10 mg/kg clopidogrel
Experimental: Adult male Sprague-Dawley rats are dosed with various triphenylethylenes at different doses from 0.1 mg/kg to 10 mg/kg (spanning the likely doses such compounds would be used in man), or with vehicle only, and simultaneously dosed with 10 mg/kg clopidogrel, both by oral gavage. Blood samples are drawn through an in-dwelling jugular catheter at 0.5, 1, 2, 4, 8 and 24 hrs post-dose, and serum is prepared by conventional methods well known in the art.
The level of CLP*, the active metabolite of clopidogrel is then determined in each blood sample by LC-MS by collecting the blood samples in tubes containing the thiol alkylating agent iodeoacetamide. Iodoacetamide reacts with CLP* to generate a stable product which can be detected by LC-MS using standard methodology well known in the art. An authentic sample of the acetamide adduct of CLP* is used to quantify the level of CLP*-acetamide in the sample. […] The concentration of CLP*-acetamide adduct can therefore be assumed to be proportional to the concentration of CLP*. The pharmacokinetics of CLP*-acetamide are then compared under the different conditions, using standard pharmacokinetics models implemented with WinNonLin.

[3] = Meta-analysis of cardiovascular outcomes of women treated with Tamoxifen (Braithwaite et al.); assay type: in vivo; conditions: translated from the relative risk
Description: This translates to a 33% reduction in risk, which, if replicated among higher risk groups such as men, would result in at least 10,000 fewer deaths due to myocardial infarction in the UK alone each year, and five times that number in the US.

[4] = analog 0.1 mg/kg with 10 mg/kg clopidogrel
[5] = analog 1 mg/kg with 10 mg/kg clopidogrel
[6] = analog 10 mg/kg with 10 mg/kg clopidogrel

| SMILES | TGF-beta Production Stimulator activity (in words) [1] | effect on clopidogrel metabolism (in words) [2] | effect on clopidogrel metabolism (in words) ([2]; listed as droloxifene) | % inhibition of CLP*-acetamide Cmax compared to vehicle control [2, 4] [%] | % inhibition of CLP*-acetamide Cmax compared to vehicle control [2, 5] [%] | % inhibition of CLP*-acetamide Cmax compared to vehicle control [2, 6] [%] | TGF-beta Production Stimulator activity (in words) ([1]; listed as raloxifene) | reduction in risk of death from myocardial infarction [3] [%] |
| --- | --- | --- | --- | --- | --- | --- | --- | --- |
| CC/C(=C(/c1ccc(OCCN(C)C)cc1)c1cccc(O)c1)c1ccccc1 [Droloxifene, (E)-1-(4′-(2-dimethylaminoethoxy)phenyl)-1-(3-hydroxyphenyl)-2-phenylbut-1-ene] | comparable activity | no effect on clopidogrel metabolism | no effect on the pharmacokinetics of clopidogrel | 0 | −19 | −7 |  |  |
| CC/C(=C(\c1ccc(I)cc1)c1ccc(OCCN2CCCC2)cc1)c1ccccc1 [Idoxifene] |  |  |  | 2 | 6 | 48 |  |  |
| O=C(c1ccc(OCCN2CCCCC2)cc1)c1c(-c2ccc(O)cc2)sc2cc(O)ccc12 [Raloxifene] | does not have measurable activity |  |  | −18 | 11 |  | substantially less active; also recorded: does not stimulate the production of TGF-beta1 |  |
| CC/C(=C(\c1ccccc1)c1ccc(OCCN(C)C)cc1)c1ccccc1 [Tamoxifen] |  |  |  |  |  |  |  | 33 |
| CC/C(=C(\c1ccccc1)c1ccc(OCCN(C)C)cc1)c1ccccc1 [tamoxifen citrate] | no difference |  |  |  |  |  |  |  |
